Assay results taken from ChEMBL document CHEMBL3865792, “Antioxidant and antitumor activity of trolox, trolox succinate, and α-tocopheryl succinate conjugates with nitroxides” (Eur J Med Chem, 2016).

Assays:
[1] = Genotoxicity in Escherichia coli PQ37 expressing lacZ gene assessed as ratio of inducible beta-galactosidase activity to alkaline phosphatase activity at 30 mM after 2 hrs by SOS-chromotest relative to control; format: toxicity; conditions: Escherichia coli PQ37 cells expressing lacZ gene, read-out: FC
Salmonella typhimurium = test: Genotoxicity in Salmonella typhimurium TA102 harboring […] mutant assessed as frequency of reversion from histidine auxotrophy to prototrophy at 30 mM after 48 hrs by Ames test (reference value: 209 +/- 10 No _unit); format: toxicity, organism-based; conditions: salmonella enterica subsp. enterica serovar typhimurium, 30000 µM
[2] = test system: Salmonella enterica subsp. enterica serovar Typhimurium; test: Antioxidant activity in Salmonella typhimurium TA102 harboring […] mutant assessed as inhibition of t-BuO2H-dependant mutant formation at 0.3 uM preincubated with compound followed by t-BuO2H addition after 48 hrs by Ames test; format: functional
[3] = test system: Salmonella enterica subsp. enterica serovar Typhimurium; test: Antioxidant activity in Salmonella typhimurium TA102 harboring […] mutant assessed as inhibition of t-BuO2H-dependant mutant formation at 3 uM preincubated with compound followed by t-BuO2H addition after 48 hrs by Ames test; format: functional
[4] = test system: Salmonella enterica subsp. enterica serovar Typhimurium; test: Antioxidant activity in Salmonella typhimurium TA102 harboring […] mutant assessed as inhibition of t-BuO2H-dependant mutant formation at 30 uM preincubated with compound followed by t-BuO2H addition after 48 hrs by Ames test; format: functional
[5] = Cytotoxicity against human MCF7 cells assessed as reduction in cell viability after 72 hrs by MTT assay; format: functional, cell-based; conditions: MCF7, 72 h
[6] = Cytotoxicity against human RPMI8226 cells assessed as reduction in cell viability after 72 hrs by MTT assay; format: functional, cell-based; conditions: RPMI-8226, 72 h
[7] = Cytotoxicity against human HepG2 cells assessed as reduction in cell viability after 72 hrs by MTT assay; format: functional, cell-based; conditions: HepG2, 72 h
[8] = Cytotoxicity against human CEM13 cells assessed as reduction in cell viability after 72 hrs by MTT assay; format: functional, cell-based; conditions: CEM13, 72 h
[9] = Cytotoxicity against human U937 cells assessed as reduction in cell viability after 72 hrs by MTT assay; format: functional, cell-based; conditions: U-937, 72 h
[10] = Cytotoxicity against human MT4 cells assessed as reduction in cell viability after 72 hrs by MTT assay; format: functional, cell-based; conditions: MT4, 72 h
[11] = Cytotoxicity against mouse LMTK cells assessed as reduction in cell viability after 72 hrs by MTT assay; format: toxicity
[12] = Cytotoxicity against hamster AG17-1 cells assessed as reduction in cell viability after 72 hrs by MTT assay; format: toxicity, cell-based, Cricetulus griseus; conditions: Chinese hamster
[13] = Cytotoxicity against human MCF7 cells assessed as reduction in cell viability at 300 uM after 72 hrs by MTT assay; format: functional; conditions: MCF7, 72 h
[14] = Cytotoxicity against human RPMI8226 cells assessed as reduction in cell viability at 300 uM after 72 hrs by MTT assay; format: functional; conditions: RPMI-8226, 72 h
[15] = Cytotoxicity against human HepG2 cells assessed as reduction in cell viability at 300 uM after 72 hrs by MTT assay; format: functional; conditions: HepG2, 72 h
[16] = Cytotoxicity against mouse LMTK cells assessed as reduction in cell viability at 300 uM after 72 hrs by MTT assay; format: toxicity; conditions: read-out: INH
[17] = Cytotoxicity against hamster AG17-1 cells assessed as reduction in cell viability at 300 uM after 72 hrs by MTT assay; format: toxicity, cell-based, Cricetulus griseus; conditions: Chinese hamster, read-out: INH
[18] = Ratio of IC50 for human MCF7 cells to concentration causing antioxidant activity in Salmonella typhimurium TA102 harboring […] mutant; format: functional
[19] = Ratio of IC50 for human RPMI8226 cells to concentration causing antioxidant activity in Salmonella typhimurium TA102 harboring […] mutant; format: functional, RPMI-8226
[20] = Ratio of IC50 for human HEPG2 cells to concentration causing antioxidant activity in Salmonella typhimurium TA102 harboring […] mutant; format: functional
[21] = Ratio of IC50 for human CEM13 cells to concentration causing antioxidant activity in Salmonella typhimurium TA102 harboring […] mutant; format: functional
[22] = Ratio of IC50 for human MT4 cells to concentration causing antioxidant activity in Salmonella typhimurium TA102 harboring […] mutant; format: functional
[23] = Ratio of IC50 for human U937 cells to concentration causing antioxidant activity in Salmonella typhimurium TA102 harboring […] mutant; format: functional, U-937
[24] = Cytotoxicity against human CEM13 cells assessed as reduction in cell viability at 300 uM after 72 hrs by MTT assay; format: functional; conditions: CEM13, 72 h
[25] = Genotoxicity in Escherichia coli PQ37 expressing lacZ gene assessed as ratio of inducible beta-galactosidase activity to alkaline phosphatase activity at 3 mM after 2 hrs by SOS-chromotest relative to control; format: toxicity; conditions: Escherichia coli PQ37 cells expressing lacZ gene, read-out: FC

Compound	fold induction at 2 h, 30000 µM [1]	Activity (Salmonella typhimurium)	inhibition [2] [%]	inhibition [3] [%]	inhibition [4] [%]	IC50 [5] [µM]	IC50 [6] [µM]	IC50 [7] [µM]	IC50 [8] [µM]	IC50 [9] [µM]	IC50 [10] [µM]	IC50 at 72 h [11] [µM]	IC50 at 72 h [12] [µM]	cytotoxicity at 72 h, 300 µM [16] [%]	Ratio [18]	Ratio [19]	Ratio [20]	Ratio [21]	Ratio [22]	Ratio [23]	further results
Cc1c(C)c2c(c(C)c1OC(=O)CCC(=O)NC1CC(C)(C)N([O])C(C)(C)C1)CC[C@@](C)(CCC[C@H](C)CCC[C@H](C)CCCC(C)C)O2	1.1	222	24	29	20	> 300	> 300	> 300	146	76	53	> 300	> 300	19	100 - 1000	100 - 1000	100 - 1000	100 - 1000	100 - 1000	100 - 1000	inhibition at 300 µM [13]: 28%; inhibition at 300 µM [14]: 13%; inhibition at 300 µM [15]: 5%; cytotoxicity at 72 h, 300 µM [17]: 30%
Cc1c(C)c2c(c(C)c1OC(=O)CCC(=O)O)CCC(C)(C(=O)NC1CC(C)(C)N([O])C(C)(C)C1)O2 (configuration not stated)	1.1	216	10	18	19	> 300	> 300	> 300	> 300	123	165	> 300	> 300	0	100 - 1000	100 - 1000	100 - 1000	100 - 1000	100 - 1000	100 - 1000	inhibition at 300 µM [13]: 15%; inhibition at 300 µM [14]: 14%; inhibition at 300 µM [15]: 44%; inhibition at 300 µM [24]: 30%; cytotoxicity at 72 h, 300 µM [17]: 36%
CC1(C)CC(CNC(=O)CCC(=O)O)C(C)(C)N1[O] (configuration not stated)	–	219	15	21	11	> 300	> 300	> 300	> 400	282	> 400	> 300	> 300	0	100 - 1000	100 - 1000	100 - 1000	100 - 1000	100 - 1000	100 - 1000	fold induction at 2 h, 3000 µM [25]: 1.3; inhibition at 300 µM [13]: 24%; inhibition at 300 µM [14]: 13%; inhibition at 300 µM [15]: 0%; cytotoxicity at 72 h, 300 µM [17]: 0%
Cc1c(C)c2c(c(C)c1OC(=O)CCC(=O)NC1CC(C)(C)N([O])C1(C)C)CCC(C)(C(=O)NC1CC(C)(C)N([O])C1(C)C)O2 (configuration not stated)	1.1	229	22	20	13	86	> 300	> 300	> 300	75	207	> 300	166	10	100 - 1000	100 - 1000	100 - 1000	100 - 1000	100 - 1000	100 - 1000	inhibition at 300 µM [14]: 0%; inhibition at 300 µM [15]: 15%; inhibition at 300 µM [24]: 34%
Cc1c(C)c2c(c(C)c1O)CCC(C)(C(=O)NC1CC(C)(C)N([O])C1(C)C)O2 (configuration not stated)	1.2	221	55.2	57.6	62	58	58	145	> 300	98	144	> 300	194	32	100 - 1000	100 - 1000	100 - 1000	100 - 1000	100 - 1000	100 - 1000	inhibition at 300 µM [24]: 45%
